How the values were obtained:
CETP = CETP (Homo sapiens (Human), UniProt P11597); test: Scintillation Proximity Assay (SPA) for CETP Activity; format: biochemical; conditions: 15 nM CETP, biotinylated LDL, 3H-cholesterol ester HDL; read-out: SPA IC50 (CETP Inhibition)
Experimental: Protocol: Scintillation Proximity Assay (SPA) for CETP Activity
First, low density lipoprotein (LDL) (Meridian) was biotinylated by incubating LDL with biotin for 1 hour on ice, after which it was dialyzed to remove free biotin. Then compounds at varying concentrations were incubated with 15 nM CETP (reagent production group, In Vitro Pharmacology, MRL Rahway) and 50 ug/ml of the biotinylated LDL in 50 mM HEPES, 150 mM NaCl, pH 7.4, for 1 hour at 37° C. The reaction was started by adding ^3H-cholesterol ester high density lipoprotein (HDL) (American Radiochemicals Corp) at a concentration of ˜0.6 nM. The reaction proceeded for 2 hours at 37° C., after which time it was quenched by the addition of 12% acetic acid. PVT streptavadin-coated scintillation proximity beads, which had been brought to room temperature, were then added at a concentration of 4 mg/ml. The assay was then mixed and counted after one half hour in a Microbeta plate reader.

[1] = cited from earlier work
[2] = patients given torcetrapib and atorvastatin concomitantly compared with atorvastatin alone; cited from earlier work
[3] = patients, anacetrapib with baseline statin therapy compared with just a statin

Sequence of CETP (P11597 18-493): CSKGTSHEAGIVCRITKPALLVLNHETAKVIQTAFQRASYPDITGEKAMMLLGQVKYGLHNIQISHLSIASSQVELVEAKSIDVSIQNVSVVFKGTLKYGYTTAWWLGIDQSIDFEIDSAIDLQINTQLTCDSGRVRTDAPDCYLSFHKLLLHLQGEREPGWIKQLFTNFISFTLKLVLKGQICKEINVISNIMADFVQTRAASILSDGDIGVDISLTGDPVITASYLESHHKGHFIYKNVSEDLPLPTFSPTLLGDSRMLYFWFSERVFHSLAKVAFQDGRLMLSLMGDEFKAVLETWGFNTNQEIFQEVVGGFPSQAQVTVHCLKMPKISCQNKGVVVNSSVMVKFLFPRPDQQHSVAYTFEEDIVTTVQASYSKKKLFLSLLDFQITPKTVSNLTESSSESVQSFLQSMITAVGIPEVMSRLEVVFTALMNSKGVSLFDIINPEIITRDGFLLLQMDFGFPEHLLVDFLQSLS

## COc1ncc(C(C)C)cc1-c1cnc(N2CCOCC2)nc1CN1C(=O)O[C@H](c2cc(C(F)(F)F)cc(C(F)(F)F)c2)[C@@H]1C [Example 15, (4S,5R)-5-[3,5-Bis(trifluoromethyl)phenyl]-3-{[5-(5-isopropyl-2-methoxypyridin-3-yl)-2-(morpholin-4-yl)pyrimidin-4-yl]methyl}-4-methyl-1,3-oxazolidin-2-one]
CETP
  IC50: 229 nM

## COc1cc(F)c(C(C)C)cc1-c1ccc(C(F)(F)F)cc1CN1C(=O)O[C@H](c2cc(C(F)(F)F)cc(C(F)(F)F)c2)[C@@H]1C [anacetrapib]
[1]; patients treated with anacetrapib
  increase in mortality: unlikely
[1]; [3]
  decrease of LDL-C: 40%
  increase of HDL-C: 138%

## CCOC(=O)N1c2ccc(C(F)(F)F)cc2[C@@H](N(Cc2cc(C(F)(F)F)cc(C(F)(F)F)c2)C(=O)OC)C[C@H]1CC [torcetrapib]
[2]
  incidence of mortality: higher incidence of mortality

Reference: patent US9353101B2 (Merck Sharp & Dohme Corp., priority 2012, dated 2016)
